Holding throughout (experiment): ATPase modulation in proteoliposomes, malachite green
Common to all, as to assay type: biochemical

Assay [1] addresses T1, EfrEF (Enterococcus faecalis, UniProt Q832J9+Q832K0).
T1 construct: gene EF_2226; full-length heterodimer, N-terminal deca-His tag on first chain cleaved with 3C protease, expressed in L. lactis NZ9000 dlmrA dlmrCD; proteoliposomes
To be noted: 0.1-200 uM drug; 1 mM ATP, 10 mM MgSO4, pH 7.0, 30°C; bell-shaped curve.

Another assay concerns the target T2, EfrCD (Enterococcus faecalis, UniProt Q837P4+Q837P5).
T2 construct: gene EF_0789; full-length heterodimer, N-terminal deca-His tag on EfrC cleaved with 3C protease (tag present in cells), expressed in L. lactis NZ9000 dlmrA dlmrCD; proteoliposomes
To be noted: 0.1-200 uM drug; 1 mM ATP, 10 mM MgSO4, pH 7.0, 30°C; bell-shaped curve.

Assay [2] has as its target T1, EfrEF. To be noted: 2.5 uM Hoechst 33342; 1 mM ATP, 10 mM MgSO4, pH 7.0, 30°C; bell-shaped curve.
The next assay concerns the target T3, EfrAB (Enterococcus faecalis, UniProt Q82ZX7+Q82ZX8).
T3 construct: gene EF_2920; full-length heterodimer, N-terminal deca-His tag on first chain cleaved with 3C protease, expressed in L. lactis NZ9000 dlmrA dlmrCD; proteoliposomes
To be noted: 20 uM Hoechst 33342; 1 mM ATP, 10 mM MgSO4, pH 7.0, 30°C; bell-shaped curve.

T1 sequence (Q832K0 entry or part of it): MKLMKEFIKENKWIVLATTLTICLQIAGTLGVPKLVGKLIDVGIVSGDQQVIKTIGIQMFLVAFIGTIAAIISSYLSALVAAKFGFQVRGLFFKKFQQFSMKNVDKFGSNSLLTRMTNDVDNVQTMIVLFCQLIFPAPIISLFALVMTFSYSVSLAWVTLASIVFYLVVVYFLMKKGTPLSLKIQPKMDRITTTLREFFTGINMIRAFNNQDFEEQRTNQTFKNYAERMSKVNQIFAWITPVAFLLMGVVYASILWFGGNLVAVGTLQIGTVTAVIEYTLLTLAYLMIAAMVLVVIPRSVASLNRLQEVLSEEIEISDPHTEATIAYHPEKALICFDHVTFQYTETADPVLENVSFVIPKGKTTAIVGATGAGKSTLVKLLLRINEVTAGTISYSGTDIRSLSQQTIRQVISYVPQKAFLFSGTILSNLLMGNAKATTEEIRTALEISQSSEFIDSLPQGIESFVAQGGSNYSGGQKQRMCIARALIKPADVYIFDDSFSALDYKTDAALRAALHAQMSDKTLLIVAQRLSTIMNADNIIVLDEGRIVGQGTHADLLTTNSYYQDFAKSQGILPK
T1 sequence (Q832J9 entry or part of it): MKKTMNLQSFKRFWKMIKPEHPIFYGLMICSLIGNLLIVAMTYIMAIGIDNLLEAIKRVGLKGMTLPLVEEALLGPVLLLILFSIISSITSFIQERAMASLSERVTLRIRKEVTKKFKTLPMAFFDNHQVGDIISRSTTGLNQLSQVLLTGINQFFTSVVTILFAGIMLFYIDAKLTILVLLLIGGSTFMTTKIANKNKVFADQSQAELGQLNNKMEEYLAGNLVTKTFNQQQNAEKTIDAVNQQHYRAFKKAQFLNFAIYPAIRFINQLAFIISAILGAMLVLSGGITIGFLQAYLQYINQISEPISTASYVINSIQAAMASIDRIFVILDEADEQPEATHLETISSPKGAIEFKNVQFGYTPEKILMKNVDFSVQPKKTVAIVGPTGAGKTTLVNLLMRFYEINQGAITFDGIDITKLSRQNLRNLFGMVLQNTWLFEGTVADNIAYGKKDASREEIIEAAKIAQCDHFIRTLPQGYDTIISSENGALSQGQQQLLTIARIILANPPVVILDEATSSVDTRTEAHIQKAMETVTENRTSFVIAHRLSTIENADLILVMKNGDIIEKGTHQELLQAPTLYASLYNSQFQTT
T2 sequence (Q837P5 entry or part of it): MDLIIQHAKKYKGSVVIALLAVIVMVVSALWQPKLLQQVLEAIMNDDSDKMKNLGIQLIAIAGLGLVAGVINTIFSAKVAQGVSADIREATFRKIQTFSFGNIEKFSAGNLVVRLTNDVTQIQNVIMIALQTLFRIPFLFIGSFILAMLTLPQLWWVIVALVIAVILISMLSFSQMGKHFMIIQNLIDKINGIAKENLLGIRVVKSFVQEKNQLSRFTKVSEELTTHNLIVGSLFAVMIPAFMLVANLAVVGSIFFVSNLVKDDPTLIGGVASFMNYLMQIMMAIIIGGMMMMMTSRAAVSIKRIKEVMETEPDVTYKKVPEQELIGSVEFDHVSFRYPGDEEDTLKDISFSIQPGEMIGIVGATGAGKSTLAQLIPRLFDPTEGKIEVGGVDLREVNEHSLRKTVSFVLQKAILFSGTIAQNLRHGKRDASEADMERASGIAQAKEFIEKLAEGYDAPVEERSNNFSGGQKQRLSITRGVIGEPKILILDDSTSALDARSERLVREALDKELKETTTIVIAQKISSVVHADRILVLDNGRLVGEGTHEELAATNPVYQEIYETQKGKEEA
T2 sequence (Q837P4 entry or part of it): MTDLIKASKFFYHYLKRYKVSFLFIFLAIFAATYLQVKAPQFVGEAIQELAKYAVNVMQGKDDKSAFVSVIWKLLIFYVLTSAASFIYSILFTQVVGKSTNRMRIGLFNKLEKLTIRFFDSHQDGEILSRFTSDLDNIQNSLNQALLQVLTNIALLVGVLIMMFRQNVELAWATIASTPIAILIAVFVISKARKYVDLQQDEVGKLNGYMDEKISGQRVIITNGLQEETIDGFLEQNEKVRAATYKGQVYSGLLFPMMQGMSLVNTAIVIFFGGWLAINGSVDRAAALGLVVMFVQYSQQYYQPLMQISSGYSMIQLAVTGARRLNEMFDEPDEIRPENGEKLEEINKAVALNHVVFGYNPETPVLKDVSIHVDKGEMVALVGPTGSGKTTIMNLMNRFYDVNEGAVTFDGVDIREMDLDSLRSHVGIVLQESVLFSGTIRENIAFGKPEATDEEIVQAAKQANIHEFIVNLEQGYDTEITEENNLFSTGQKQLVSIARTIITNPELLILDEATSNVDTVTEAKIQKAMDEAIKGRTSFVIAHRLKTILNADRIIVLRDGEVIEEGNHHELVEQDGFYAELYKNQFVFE
T3 sequence (Q82ZX8 entry or part of it): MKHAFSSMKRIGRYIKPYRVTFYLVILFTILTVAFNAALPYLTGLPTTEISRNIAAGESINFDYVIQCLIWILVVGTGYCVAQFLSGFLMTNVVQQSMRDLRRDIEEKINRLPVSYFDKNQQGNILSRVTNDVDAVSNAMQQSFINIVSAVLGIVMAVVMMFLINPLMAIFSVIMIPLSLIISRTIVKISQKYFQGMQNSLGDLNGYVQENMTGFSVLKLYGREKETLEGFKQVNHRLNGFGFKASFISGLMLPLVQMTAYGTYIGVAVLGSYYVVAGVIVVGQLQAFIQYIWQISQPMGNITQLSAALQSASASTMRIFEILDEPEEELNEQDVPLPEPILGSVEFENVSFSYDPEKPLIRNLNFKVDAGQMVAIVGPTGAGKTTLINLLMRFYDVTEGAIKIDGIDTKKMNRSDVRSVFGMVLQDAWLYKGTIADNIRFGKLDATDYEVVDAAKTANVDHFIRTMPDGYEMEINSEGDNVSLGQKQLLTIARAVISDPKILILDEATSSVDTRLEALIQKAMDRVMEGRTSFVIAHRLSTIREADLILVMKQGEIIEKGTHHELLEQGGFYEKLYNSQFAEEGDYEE
T3 sequence (Q82ZX7 entry or part of it): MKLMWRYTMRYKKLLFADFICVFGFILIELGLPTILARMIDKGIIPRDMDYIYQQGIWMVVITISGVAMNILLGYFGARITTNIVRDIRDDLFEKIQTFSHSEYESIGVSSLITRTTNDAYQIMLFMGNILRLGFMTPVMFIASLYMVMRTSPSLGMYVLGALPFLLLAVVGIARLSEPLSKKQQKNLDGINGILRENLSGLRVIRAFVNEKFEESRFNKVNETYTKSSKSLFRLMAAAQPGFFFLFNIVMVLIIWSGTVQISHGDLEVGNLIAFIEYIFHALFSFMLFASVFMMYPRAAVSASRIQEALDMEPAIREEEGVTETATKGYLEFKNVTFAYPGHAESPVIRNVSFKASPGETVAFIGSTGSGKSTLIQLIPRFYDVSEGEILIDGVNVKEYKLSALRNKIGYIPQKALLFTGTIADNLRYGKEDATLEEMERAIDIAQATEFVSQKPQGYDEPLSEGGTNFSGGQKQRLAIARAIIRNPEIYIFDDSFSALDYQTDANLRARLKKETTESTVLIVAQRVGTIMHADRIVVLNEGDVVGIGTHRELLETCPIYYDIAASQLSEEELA

On to `CC[n+]1c(-c2ccccc2)c2cc(N)ccc2c2ccc(N)cc21` [ethidium], for which the “drug-modulated ATPase activity” value on EfrEF [1] is listed as “For ethidium, a bell-shaped curve with a large magnitude was observed for EfrEF”.

Take `COc1cccc2c1C(=O)c1c(O)c3c(c(O)c1C2=O)C[C@@](O)(C(C)=O)C[C@@H]3O[C@H]1C[C@H](N)[C@H](O)[C@H](C)O1` [daunorubicin]: at EfrCD, the “drug-modulated ATPase activity” value was “a strong response in the form of a bell-shaped curve was seen for EfrCD”.

For the compound `CCOc1ccc(-c2nc3ccc(-c4nc5ccc(N6CCN(C)CC6)cc5[nH]4)cc3[nH]2)cc1` [Hoechst 33342], the “maximal ATPase stimulation (basal = 100%)” value on EfrEF [2] is given as 130%; at EfrAB it was 165%.

These data come from PMC4997860, “The Heterodimeric ABC Transporter EfrCD Mediates Multidrug Efflux in Enterococcus faecalis” (Antimicrobial Agents and Chemotherapy, 2016).
